Experimental data: US10918108B2, “Synergistic herbicidal composition” (JIANGSU ROTAM CHEMISTRY CO., LTD, priority 2016, dated 2021)

System: gramineous weeds, broadleaf weeds and sedge weeds
Assay: Weed control efficacy, greenhouse pot test, survival rate compared with Colby value (Table 1)
Format: in vivo
From the text: The desired efficacy of the combination of three active compounds can be calculated through “Colby formula” as follows (S. R. Colby, “Calculating Synergistic and Antagonistic Responses of Herbicide Combinations, Weeds 1967, 15, 20-22): if
A is the activity of active compound A when used in an amount of mg/ha or concentrate of mppm, expressed as a percentage of untreated control;
B is the activity of active compound B when used in an amount of ng/ha or concentrate of nppm, expressed as a percentage of untreated control;
C is the activity of active compound C when used in an amount of hg/ha or concentrate of hppm, expressed as a percentage of untreated control;
E0 is the anticipated activity of active compounds A, B and C when used in an amount of m, n, h g/ha or concentrate of m, n, h ppm, E0=A×B×C/(100^(N-1)) N=3;
If the observed actual activity E is greater than the anticipated activity (E0), then the composition has synergistic effect.
If the observed actual efficiency of weed control (E) through the biology test is greater than the anticipated value (E0) as calculated via Colby's equation, then it represents that the efficacy of herbicidal composition is greater than the sum of efficacy of each component, which means the composition has synergistic effect.
Use stem and leaf treatment for potted grown plant(NY/T 1155.4-2006): fill a plastic pot (6 cm height, 9 cm diameter) with a quantity of soil and sow 15 to 20 seeds of monocotyledonous weeds and dicotyledonous weeds in the plastic pot, cover it with 0.5 to 1 cm thick of fine soil and then put it in greenhouse for cultivation. When weeds grow to the 2 to 4 leave stage, conduct the stem and leaf spray treatment with 1 mL herbicidal solution on each pot and repeat four times for each treatment and leave some pots untreated as control group. Keep the treated pots in a greenhouse for cultivation and observe the growing status of target weeds periodically. Conduct the visual test on the target weeds regarding the damage symptoms and growth inhibition effect after 21 days. Weigh up the fresh weight above the ground or plant fresh weight and evaluate the toxicity of the herbicidal formulation on target weeds based on the fresh weight inhibition rate of the target.
Prepare the following formulations according to specific weight percentages: 1. Pyroxasulfone; 2. Mesotrione; 3 Atrazine; 4. Pyroxasulfone+Mesotrione; 5. Pyroxasulfone+Atrazine; 6. Mesotrione+Atrazine; 7. Pyroxasulfone+Mesotrione+Atrazine. After that, dilute above formulations with water to obtain diluted formulations.
Conduct visual assessment the damage symptom and growth inhibition status of target weeds after 21 days. Weigh up the fresh weight above the ground and calculate the inhibition rate of fresh weight (%).
Anticipated effects of the special combined three active components can be calculated through so called “Colby formula”. If the actual efficiency of weed control observed during the biology test exceeds the anticipated value […] calculated by Colby's formula, then it represents that the efficacy of herbicidal composition is greater than the sum of efficacy of each component, which means the composition has synergistic effect.
The synergistic herbicidal composition of present invention has conducted test on the following important harmful plants (gramineous weeds, broadleaf weeds, sedge weeds) with wide herbicidal spectrum: Echinochloa oryzicola, Digitaria spp., Stellaria media, Amaranthus retroflexus, Fallopia(ex Polygonum) Convolvulus, Abuthilon theophrasti, Sagittariatrifolia, Oriental Waterplantain Rhizome, Herb of Pygmy Arrowhead, Monochoria korsakowii, Lindernia procumbens, Solanum nigrum L., Scirpus juncoides Roxb, Cyperus difformis L., Chenopodium alum L., Avena fatua L. and Galium aparine L. var. tenerum Gren. et (Godr.) Rebb.

| Structure (SMILES) | Actual survival rate (%) (application rate 1 g/ha) | Actual survival rate (%) (application rate 50 g/ha) | Actual survival rate (%) (application rate 100 g/ha) | Actual survival rate (%) (application rate 25 g/ha) | Actual survival rate (%) (application rate 5 g/ha) | Actual survival rate (%) (application rate 10 g/ha) |
| --- | --- | --- | --- | --- | --- | --- |
| CCNc1nc(Cl)nc(NC(C)C)n1 [Atrazine, 2-chloro-4-ethylamino-6-isopropylamino-1,3,5-triazine] | 100 | 100 | 67 |  |  |  |
| CS(=O)(=O)c1ccc(C(=O)C2C(=O)CCCC2=O)c([N+](=O)[O-])c1 [Mesotrione, 2-(4-mesyl-2-nitrobenzoyl)cyclohexane-1,3-dione] | 100 | 74 |  | 87 |  |  |
| Cn1nc(C(F)(F)F)c(CS(=O)(=O)C2=NOC(C)(C)C2)c1OC(F)F [Pyroxasulfone, 3-[5-(difluoromethoxy)-1-methyl-3-(trifluoromethyl)pyrazol-4-ylmethylsulfonyl]-4,5-dihydro-5,5-dimethyl-1,2-oxazole] | 89 |  |  |  | 78 | 60 |
